Where two headings read alike, the source gives them in different places.
Tests used:
[1] = system: L3 animals; assay: Abnormal locomotory behaviour of L3 animals on solid agar (extended SAR); type: in vivo, Caenorhabditis elegans; conditions: for pest or weed control at 3.75 µM / pest or weed control at 15 µM / pest or weed control at 60 µM: Caenorhabditis elegans
Experimental: 20 animals were scored after either 1, 6 or 24 hours of exposure to drug (as indicated) per replicate. […] Data are reported as the mean % of animals with abnormal phenotype over 4 independent replicates.

[2] = system: wild type fourth-stage C. elegans larvae (L4s); assay: Locomotory defects (coiled and/or paralysis) in wild type fourth-stage C. elegans larvae on solid substrate; type: in vivo, Caenorhabditis elegans; conditions: for Activity (%): percent of animals that show coiled and/or paralysis: 60 μM, after 60 min on solid substrate, L4 C. elegans
Experimental: A preliminary first round of SAR analyses using analogs of exemplary compound Ia was performed and the analogs' ability to induce locomotory defects in wild type fourth-stage C. elegans larvae (L4s) was tested.
If phenotype is observed, a dose-response analysis is performed.

[3] = 3.75 uM, 1 h exposure, L3, mean of 4 replicates, read-out: % any phene 1 h (conc.) 3.75
[4] = 3.75 uM, 6 h exposure, L3, mean of 4 replicates, read-out: % any phene 6 h (conc.) 3.75
[5] = 3.75 uM, 24 h exposure, L3, mean of 4 replicates, read-out: % any phene 24 h (conc.) 3.75
[6] = 15 uM, 1 h exposure, L3, mean of 4 replicates, read-out: % any phene 1 h (conc.) 15
[7] = 15 uM, 6 h exposure, L3, mean of 4 replicates, read-out: % any phene 6 h (conc.) 15
[8] = 15 uM, 24 h exposure, L3, mean of 4 replicates, read-out: % any phene 24 h (conc.) 15
[9] = 60 uM, 1 h exposure, L3, mean of 4 replicates, read-out: % any phene 1 h (conc.) 60
[10] = 60 uM, 6 h exposure, L3, mean of 4 replicates, read-out: % any phene 6 h (conc.) 60
[11] = 60 uM, 24 h exposure, L3, mean of 4 replicates, read-out: % any phene 24 h (conc.) 60
[12] = 3.75 uM, 1 h exposure, L3, mean of 4 replicates
[13] = 3.75 uM, 6 h exposure, L3, mean of 4 replicates
[14] = 3.75 uM, 24 h exposure, L3, mean of 4 replicates
[15] = 15 uM, 1 h exposure, L3, mean of 4 replicates
[16] = 15 uM, 6 h exposure, L3, mean of 4 replicates
[17] = 15 uM, 24 h exposure, L3, mean of 4 replicates
[18] = 60 uM, 1 h exposure, L3, mean of 4 replicates
[19] = 60 uM, 6 h exposure, L3, mean of 4 replicates
[20] = 60 uM, 24 h exposure, L3, mean of 4 replicates
[21] = 1 h, read-out: % any phene 1 h (conc.) 3.75
[22] = 1 h, read-out: % any phene 1 h (conc.) 15
[23] = 1 h, read-out: % any phene 1 h (conc.) 60
[24] = 6 h, read-out: % any phene 6 h (conc.) 3.75
[25] = 6 h, read-out: % any phene 6 h (conc.) 15
[26] = 6 h, read-out: % any phene 6 h (conc.) 60
[27] = 24 h, read-out: % any phene 24 h (conc.) 3.75
[28] = 24 h, read-out: % any phene 24 h (conc.) 15
[29] = 24 h, read-out: % any phene 24 h (conc.) 60

| Structure (SMILES) | pest or weed control at 3.75 µM [1, 3] | pest or weed control at 3.75 µM [1, 4] | pest or weed control at 3.75 µM [1, 5] | pest or weed control at 15 µM [1, 6] | pest or weed control at 15 µM [1, 7] | pest or weed control at 15 µM [1, 8] | pest or weed control at 60 µM [1, 9] | pest or weed control at 60 µM [1, 10] | pest or weed control at 60 µM [1, 11] | Activity (%): percent of animals that show coiled and/or paralysis [2] | also measured |
| --- | --- | --- | --- | --- | --- | --- | --- | --- | --- | --- | --- |
| c1ccc(N2CCN(C3CCCCCC3)CC2)cc1 [Iff] | 24.2% | 6.7% | 0% | 98.3% | 28.3% | 0% | 100% | 51.7% | 0% | – | – |
| O=[N+]([O-])c1ccc(N2CCN(C3CCCCCCC3)CC2)cc1 [Is] | 3.3% | 0% | 0% | – | 15% | 0% | 100% | 62.5% | 13.3% | – | – |
| Fc1ccc(N2CCN(CC3CC=CCC3)CC2)cc1 (centres unmarked) [Iy] | 22.5% | 0% | 0% | 77.5% | 35% | 0% | 100% | 99.2% | 58.3% | – | – |
| O=[N+]([O-])c1ccc(N2CCN(Cc3ccccc3)CC2)cc1 [Im] | – | – | – | – | – | – | – | – | – | 0.00% | % any phene 1 h (conc.) 3.75 [1, 12]: 0.0%; % any phene 6 h (conc.) 3.75 [1, 13]: 0.0%; % any phene 24 h (conc.) 3.75 [1, 14]: 0.0%; % any phene 1 h (conc.) 15 [1, 15]: 7.5%; % any phene 6 h (conc.) 15 [1, 16]: 3.3%; % any phene 24 h (conc.) 15 [1, 17]: 0.0%; % any phene 1 h (conc.) 60 [1, 18]: 44.2%; % any phene 6 h (conc.) 60 [1, 19]: 30.8%; % any phene 24 h (conc.) 60 [1, 20]: 0.0% |
| O=[N+]([O-])c1ccc(N2CCN(CC3CC3)CC2)cc1 [Iq] | – | – | – | – | – | – | – | – | – | 6% +/− 3.2 | % any phene 1 h (conc.) 3.75 [1, 12]: 0.0%; % any phene 6 h (conc.) 3.75 [1, 13]: 5.0%; % any phene 24 h (conc.) 3.75 [1, 14]: 0.0%; % any phene 1 h (conc.) 15 [1, 15]: 4.2%; % any phene 6 h (conc.) 15 [1, 16]: 29.2%; % any phene 24 h (conc.) 15 [1, 17]: 0.0%; % any phene 1 h (conc.) 60 [1, 18]: 32.5%; % any phene 6 h (conc.) 60 [1, 19]: 36.7%; % any phene 24 h (conc.) 60 [1, 20]: 4.2% |
| Fc1ccc(N2CCN(C3CCCCCC3)CC2)cc1 [Iaa] | 45% | 6.7% | 0% | 89.2% | 27.5% | 0% | 100% | 97.5% | 69.2% | – | – |
| Fc1ccc(N2CCN(CC3CCCCC3)CC2)cc1 [Ig] | – | – | – | – | – | – | – | – | – | – | pest or weed control at 3.75 µM [1, 21]: 21.7%; pest or weed control at 15 µM [1, 22]: 44.2%; pest or weed control at 60 µM [1, 23]: 95%; pest or weed control at 3.75 µM [1, 24]: 0.8%; pest or weed control at 15 µM [1, 25]: 9.2%; pest or weed control at 60 µM [1, 26]: 79.2%; pest or weed control at 3.75 µM [1, 27]: 0%; pest or weed control at 15 µM [1, 28]: 4.2%; pest or weed control at 60 µM [1, 29]: 66.7% |
| C1CNCCN1 [Piperazine, reference compound] | – | – | – | – | – | – | – | – | – | 0.00% | – |
| CC1CCC(N2CCN(c3ccc(F)cc3)CC2)CC1 (centres unmarked) [Ibb] | – | 5% | 0% | – | 75.8% | 13.3% | 100% | 100% | 100% | – | – |
| CC1CCC(N2CCN(c3ccccc3)CC2)CC1 (centres unmarked) [Iz] | 60.8% | 0% | 0% | 96.7% | 6.7% | 0% | 99.2% | 85% | 14.2% | – | – |
| O=[N+]([O-])c1ccc(N2CCN(CC3CCCC3)CC2)cc1 [If] | – | – | – | – | – | – | – | – | – | 98% +/− 1.9 | rank among analogs for inducing locomotory defects ([2]; SAR comparison with compound Ia analogs): most potent analog to date |
| CC1CCC(N2CCN(c3ccc([N+](=O)[O-])cc3)CC2)CC1 (centres unmarked) [Ib] | – | – | – | – | – | – | – | – | – | 87% +/− 3.7 | pest or weed control at 3.75 µM [1, 21]: 3.3%; pest or weed control at 15 µM [1, 22]: 97.5%; pest or weed control at 60 µM [1, 23]: 100%; pest or weed control at 3.75 µM [1, 24]: 0%; pest or weed control at 15 µM [1, 25]: 93.3%; pest or weed control at 60 µM [1, 26]: 100%; pest or weed control at 3.75 µM [1, 27]: 0%; pest or weed control at 15 µM [1, 28]: 73.3%; pest or weed control at 60 µM [1, 29]: 100% |
| N#Cc1ccc(N2CCN(CC3CCCCC3)CC2)cc1 [Ik] | – | – | – | – | – | – | – | – | – | 61% +/− 5.0 | % any phene 1 h (conc.) 3.75 [1, 12]: 8.3%; % any phene 6 h (conc.) 3.75 [1, 13]: 15.0%; % any phene 24 h (conc.) 3.75 [1, 14]: 0.0%; % any phene 1 h (conc.) 15 [1, 15]: 45.8%; % any phene 6 h (conc.) 15 [1, 16]: 37.5%; % any phene 24 h (conc.) 15 [1, 17]: 23.3%; % any phene 1 h (conc.) 60 [1, 18]: 91.7%; % any phene 6 h (conc.) 60 [1, 19]: 98.3%; % any phene 24 h (conc.) 60 [1, 20]: 100.0% |
| CCC1CCC(N2CCN(c3ccc([N+](=O)[O-])cc3)CC2)CC1 (centres unmarked) [Ic] | 29.2% | 8.3% | 0% | 95.9% | 80.8% | 89.2% | 100% | 100% | 100% | 71% +/− 2.1 | – |
| N#Cc1ccc(N2CCN(CC3CCCC3)CC2)cc1 [Ip] | – | – | – | – | – | – | – | – | – | 41% +/− 7.4 | % any phene 1 h (conc.) 3.75 [1, 12]: 0.8%; % any phene 6 h (conc.) 3.75 [1, 13]: 0.0%; % any phene 24 h (conc.) 3.75 [1, 14]: 0.0%; % any phene 1 h (conc.) 15 [1, 15]: 29.2%; % any phene 6 h (conc.) 15 [1, 16]: 10.0%; % any phene 24 h (conc.) 15 [1, 17]: 0.0%; % any phene 1 h (conc.) 60 [1, 18]: 91.3%; % any phene 6 h (conc.) 60 [1, 19]: 42.5%; % any phene 24 h (conc.) 60 [1, 20]: 62.5% |
| Clc1ccc(N2CCN(CC3CCCCC3)CC2)cc1 [Ih] | – | – | – | – | – | – | – | – | – | – | pest or weed control at 3.75 µM [1, 21]: 0%; pest or weed control at 15 µM [1, 22]: 27.5%; pest or weed control at 60 µM [1, 23]: 55.7%; pest or weed control at 3.75 µM [1, 24]: 0%; pest or weed control at 15 µM [1, 25]: 0%; pest or weed control at 60 µM [1, 26]: 5.8%; pest or weed control at 3.75 µM [1, 27]: 0%; pest or weed control at 15 µM [1, 28]: 0%; pest or weed control at 60 µM [1, 29]: 10.8% |
| O=[N+]([O-])c1ccc(N2CCN(C3CCCCCC3)CC2)cc1 [Ir] | 43.3% | 9.2% | 0% | – | 88.3% | 30% | 100% | 100% | 100% | – | – |
| c1ccc(N2CCN(CC3CCCCC3)CC2)cc1 [Ii] | – | – | – | – | – | – | – | – | – | 19% +/− 8.1 | % any phene 1 h (conc.) 3.75 [1, 12]: 16.2%; % any phene 6 h (conc.) 3.75 [1, 13]: 0.0%; % any phene 24 h (conc.) 3.75 [1, 14]: 0.0%; % any phene 1 h (conc.) 15 [1, 15]: 39.2%; % any phene 6 h (conc.) 15 [1, 16]: 0.8%; % any phene 24 h (conc.) 15 [1, 17]: 0.0%; % any phene 1 h (conc.) 60 [1, 18]: 84.2%; % any phene 6 h (conc.) 60 [1, 19]: 44.2%; % any phene 24 h (conc.) 60 [1, 20]: 20.5% |
| c1ccc(N2CCN(CC3CCCC3)CC2)cc1 [Ihh] | 4.2% | 0% | 0% | 70% | 1.7% | 0% | 100% | 53.3% | 5% | – | – |
| c1ccc(N2CCN(C3CCCCCCC3)CC2)cc1 [Icc] | 46.7% | 0% | 0% | 93.3% | 0.8% | 0% | 100% | 33.3% | 0% | – | – |
| Clc1ccc(N2CCN(C3CCCCCC3)CC2)cc1 [Idd] | – | 86.7% | 34.2% | 100% | 100% | 98.3% | 100% | 97.5% | 97.5% | – | – |
| Clc1ccc(N2CCN(CC3CC4C=CC3C4)CC2)cc1 (centres unmarked) [Ix] | 89.2% | 100% | 66.7% | 100% | 100% | 100% | 100% | 100% | 100% | – | – |

— US11517568B2, “Compounds and methods for treating nematode infections” (The Governing Council of The University of Toronto, priority 2018, dated 2022)
